Assay results: BigSolDB 2.1

C[C@H]1[C@H](OC(=O)CCC(=O)O)O[C@@H]2O[C@@]3(C)CC[C@H]4[C@H](C)CC[C@@H]1[C@@]24OO3
solubility (mole fraction)
Settings	278.15 K	283.15 K	288.15 K	293.15 K	298.15 K	303.15 K	308.15 K	313.15 K	318.15 K
in ethanol	0.00528	0.00575	0.00636	0.00709	0.00782	0.00854	0.00939	0.0102	0.0111
in isopropanol	0.00285	0.00336	0.00392	0.00461	0.00527	0.00609	0.00698	0.00796	0.00898
in methanol	0.00497	0.00538	0.00606	0.00677	0.00747	0.00817	0.00906	0.00994	0.0108
in propylene glycol	0.001	0.00123	0.00148	0.00176	0.00205	0.00237	0.00279	0.0032	0.00366
in water	9.48e-06	1.28e-05	1.66e-05	2.16e-05	2.71e-05	3.51e-05	4.44e-05	5.54e-05	6.94e-05
